# Assay results: US9949980B2, “Drugs to prevent HPV infection” (Wisconsin Alumni Research Foundation, priority 2008, dated 2018)
# Read-outs that look alike come from different tables or passages of the source.
# Columns and labels:
# in vitro = conditions: human, Viability (CelTiter Glow)
# Description: (§1) FIG. 1. High throughout screen (HTS) for identifying inhibitors of HPV infection. Shown is a schematic showing basic steps in the HTS. […] Briefly, HPV16 pseudoviruses containing the SEAP reporter genes are analyzed for their ability to infect as judged by the levels of secreted alkaline phosphatase in the tissue culture supernatant (light grey arrows). Cell viability was assessed in parallel on the same wells (dark grey arrows). In the specific HTS carried out in this study, the compounds were added at 3 uM/1% DMSO final concentration (black arrow) 4 hours prior to infection.
# (§2) After incubation at 37° C. for 24 hrs, 35 μL of media was removed. […] Cells were incubated at 37° C. for 48 hrs. 2.5 μL of media was collected for SEAP assay using a PHOSPHA-LIGHT chemiluminescent alkaline phosphatase assay (Applied Biosystems). Cell viability was determined using the CellTiter Glo Luminescent Cell Viability Assay™ (Promega).
# HPV16 pseudoviruses = assay: microbe, parasite or virus in culture; type: cell-based; conditions: Human papillomavirus 16, HEK-293T, 48 h
# Description: as §1, §2
# [1] = read-out: Infectivity (SEAP Activity), 3 μM HTS standard concentration, 293T cells, 48 hrs
# [2] = read-out: Infectivity vs. viability, 3 μM HTS standard concentration, ratio infectivity/viability
Compound,"viability at 52 h, 3 μM (in vitro)",activity at 3 µM (HPV16 pseudoviruses; [1]),activity at 3 µM (HPV16 pseudoviruses; [2])
"Cc1ccc(S(=O)(=O)N(C)c2ccc(Br)cc2C(=O)c2ccccc2)cc1 [Compound 5867793, N-(2-benzoyl-4-bromophenyl)-N,4-dimethylbenzenesulfonamide]",95%,36.1%,38%
"COc1cc(C=C2SC(=S)NC2=O)cc(Cl)c1OC(C)C [Compound 5868253, 5-(3-chloro-4-isopropoxy-5-methoxybenzylidene)-2-thioxo-1,3-thiazolidin-4-one]",66.8%,4.97%,7.45%
"CC1=C(C(=O)Nc2ccc(C)c(Cl)c2)C(c2ccc(F)cc2)NC(=O)N1 (stereo not drawn) [Compound 5880766, N-(3-chloro-4-methylphenyl)-4-(4-fluorophenyl)-6-methyl-2-oxo-1,2,3,4-tetrahydro-5-pyrimidinecarboxamide]",92%,31.9%,34.6%
"CSc1nsc(SC)c1NC(=O)OCC1([N+](=O)[O-])COC(C)(C)OC1 [Compound 5893711, (2,2-dimethyl-5-nitro-1,3-dioxan-5-yl)methyl [3,5-bis(methylthio)-4-isothiazolyl]carbamate]",108%,63.3%,58.6%
"COn1c(=O)c(=O)n(OC)c2ccccc21 [Compound 5896361, 1,4-dimethoxy-1,4-dihydro-2,3-quinoxalinedione]",102%,60.8%,59.3%
"CC(=O)SCCC(=O)N1CCn2c3c(c4cc(C)ccc42)CCCC31 (stereo not drawn) [Compound 5915049, S-[3-(8-methyl-1,2,3a,4,5,6-hexahydro-3H-pyrazino[3,2,1-jk]carbazol-3-yl)-3-oxopropyl] ethanethioate]",102%,56.8%,55.9%
"CCCC(=O)NC(c1cccc([N+](=O)[O-])c1)c1ccc2cccnc2c1O (stereo not drawn) [Compound 5926288, N-[(8-hydroxy-7-quinolinyl)(3-nitrophenyl)methyl]butanamide]",63.3%,1.52%,2.4%
"COc1ccc(C(NC(=O)Cc2ccccc2)c2ccc3cccnc3c2O)cc1 (stereo not drawn) [Compound 5929288, N-[(8-hydroxy-7-quinolinyl)(4-methoxyphenyl)methyl]-2-phenylacetamide]",59.8%,1.44%,2.41%
"COc1cc(NC(=O)C=Cc2ccc(OC)c(Br)c2)c(OC)cc1Cl [Compound 5944623, 3-(3-bromo-4-methoxyphenyl)-N-(4-chloro-2,5-dimethoxyphenyl)acrylamide]",98.5%,48.8%,49.5%
"Cc1ccc2nc3nc(C)cc(C)c3c(N)c2c1 [Compound 5947488, 2,4,7-trimethylbenzo[b]-1,8-naphthyridin-5-amine]",68%,34.6%,51%
"Cc1ccc2cc(C3CC(c4ccc(Br)cc4)=NN3C(=O)CCC(=O)O)c(=O)[nH]c2c1 (stereo not drawn) [Compound 5976736, 4-[3-(4-bromophenyl)-5-(7-methyl-2-oxo-1,2-dihydro-3-quinolinyl)-4,5-dihydro-1H-pyrazol-1-yl]-4-oxobutanoic acid]",105%,42.2%,40.2%
"Cc1ccc(CN2CCN(S(C)(=O)=O)CC2)cc1 [Compound 5994189, 1-(4-methylbenzyl)-4-(methylsulfonyl)piperazine]",109%,39.8%,36.5%
"Cc1nc2ccccc2c(=O)n1N=Cc1c(O)ccc2ccccc12 [Compound 6001901, 3-{[(2-hydroxy-1-naphthyl)methylene]amino}-2-methyl-4(3H)-quinazolinone]",110%,65.8%,60%
"Cc1cc(OCC(=O)Nc2ccc(N3CCOCC3)c(Cl)c2)cc(C)c1Cl [Compound 6013775, 2-(4-chloro-3,5-dimethylphenoxy)-N-[3-chloro-4-(4-morpholinyl)phenyl]acetamide]",105%,58.8%,56%
"Cc1cc(Cl)ccc1OCC(=O)Nc1ccc(Br)c(NC(=O)c2ccccc2)c1 [Compound 6016344, N-(2-bromo-5-{[(4-chloro-2-methylphenoxy)acetyl]amino}phenyl)benzamide]",94.6%,51.4%,54.4%
"CCOc1ccc(C(=O)Nc2ccc3oc(-c4ccccc4F)nc3c2)cc1Cl [Compound 6021315, 3-chloro-4-ethoxy-N-[2-(2-fluorophenyl)-1,3-benzoxazol-5-yl]benzamide]",96.3%,47%,48.8%
"Cc1ccccc1C(=O)Nc1cccc(NC(=O)c2ccc(-c3ccc(Br)cc3)o2)c1 [Compound 6021688, 5-(4-bromophenyl)-N-{3-[(2-methylbenzoyl)amino]phenyl}-2-furamide]",104%,40.2%,38.7%
"O=[N+]([O-])c1cc(-n2ncnc2-c2ccc3c(c2)OCO3)ccc1F [Compound 6033199, 5-(1,3-benzodioxol-5-yl)-1-(4-fluoro-3-nitrophenyl)-1H-1,2,4-triazole]",106%,50.6%,47.9%
"CC(c1ccccc1)c1nnc(NC(=O)Nc2ccc(Cl)cc2)s1 (stereo not drawn) [Compound 6040256, N-(4-chlorophenyl)-N′-[5-(1-phenylethyl)-1,3,4-thiadiazol-2-yl]urea]",97.5%,29.6%,30.4%
"O=C(Nc1ccccc1C(=O)N[C@@H](Cc1ccccc1)C(=O)O)c1ccccc1 [Compound 6058136, N-[2-(benzoylamino)benzoyl]phenylalanine]",109%,64.7%,59.1%
"CCCCNC(=O)c1cc2nc(-c3ccc(OCC)cc3)cc(C)n2n1 [Compound 6070486, N-butyl-5-(4-ethoxyphenyl)-7-methylpyrazolo[1,5-a]pyrimidine-2-carboxamide]",113%,54.6%,48.3%
"Cc1ccc(OCc2nnc(NC(=O)Nc3ccc(Cl)c(Cl)c3)s2)cc1 [Compound 6070527, N-(3,4-dichlorophenyl)-N′-{5-[(4-methylphenoxy)methyl]-1,3,4-thiadiazol-2-yl}urea]",105%,41.8%,39.8%
"O=C(Nc1ccccc1)Nc1nnc(COc2ccc(Cl)cc2)s1 [Compound 6072068, N-{5-[(4-chlorophenoxy)methyl]-1,3,4-thiadiazol-2-yl}-N′-phenylurea]",112%,54.5%,48.8%
"Cc1ccc(-c2cc(N)n(Cc3ccc(Cl)cc3)n2)cc1 [Compound 6077076, 1-(4-chlorobenzyl)-3-(4-methylphenyl)-1H-pyrazol-5-amine]",74.4%,20.9%,28.1%
"COc1ccccc1CC(N)=NOC(=O)COc1ccc(C)cc1 [Compound 6084167, 2-(2-methoxyphenyl)-N′-{[(4-methylphenoxy)acetyl]oxy}ethanimidamide]",114%,53.8%,47.2%
